# Results from patent publication US6054437A, “Method for inducing death of neoplastic cells using piperazine derivatives” (Hitachi Chemical Research Center, Inc., priority 1997, dated 2000).
# Entries after “also recorded” stand apart in the source; their conditions may differ. Structures can show the parent of a compound that is named as a salt. Where a SMILES comes first, the peptide text is derived from it. [ ]: non-standard residue; d: D form. Nle = CCCC[C@H](N)C(=O)O
# Experiments:
# [1] = system: cancer cells having multidrug resistance; assay: Induction of cell death in cancer / multidrug-resistant cancer cells (comparison compounds); assay type: cell-based; details: data omitted
# Source text: The specifically defined present piperazine derivatives having epoxy groups are believed to work through an epoxide group, but E-64 also contains an epoxide group. […] It is believed that not only epoxy group but also a piperazine ring are essential to induction of cell death in cancer. […] Other compounds having similar structures to the present piperazine derivatives, with respect to piperazine rings when present, and epoxy groups, have been tested (data omitted here), but no significant effect was observed, meaning that surprising and unexpected effects on induction of cell death in cancer, i.e., reversing mdr and in inducing death of cancer cells without significant toxicity to normal tissues, which appear to be pharmacologically beyond prevention of metastasis in cancer, are found in the specifically defined present compounds.
# cells = assay: Long-term assay (cell survival assay), toxicity to cells; assay type: cell-based; details: long-term assays (cell survival assay)
# Protocol: (§1) Cell survival was assayed in cultured tumor cells. From 500-1000 cells per well were plated in 24-welled culture dishes and exposed to drug for seven days. After drug exposure, a computerized cell imaging technique was utilized to ascertain the number of viable cells remaining in each culture. From the data, survival curves were plotted and a ED50 (drug concentration that permits 50% cell survival) were calculated.
# [2] = system: epidermoid carcinoma A431 cells; details: cited from earlier work
# [3] = system: prostate cancer cell lines; assay: Cancer cell death assay (LDH release), prostate lines; assay type: cell-based, human; details: compound alone, 24 hours
# Protocol: (§2) 1. Cancer Cell Death Assay
# (§3) Cell death was measured quantitatively by the release of a marker intracellular enzyme, lactate dehydrogenase (LDH), from damaged or killed cells. LDH released into the extracellular fluid, was measured 24 hours after drug exposure to cancer cells and the enzyme activity was determined by the method of Decker et al. (J. Immunolog Methods 15:61-99, 1988).
# (§4) All cell lines used in the present study were obtained from the American Type Tissue Culture Laboratory and cultured according to their specifications. All were human cancer lines unless otherwise noted. The following cell lines and their tissue of origin used in our studies were:
# (§5) The first assays performed measured the anti-neoplastic activity of NCO-700, alone, in cell death assays of a wide variety of human cancer cells. The results of these experiments are shown in FIGS. 1-6, where a dose-response curve of NCO-700 versus % LDH release is plotted, with higher values of LDH released indicating greater anti-neoplastic activity (apoptosis).
# (§6) In FIG. 8, a dose-response curve is shown of the effect of TOP-008 on the killing of breast, prostate and colon cell lines.
# HS-578T (breast) [4] = assay: Cancer cell death assay (LDH release), HS-578T; assay type: cell-based, human; details: for anti-neoplastic activity (LDH release) / potency compared to NCO-700: dose response (FIG. 7)
# Protocol: as §2, §3
# A series of analogs related to NCO-700 were assayed in the cancer cell death assay. […] It should be stressed that these analogs were tested alone, without any added chemotherapeutic agent.
# Based on Experiment 1 above, the anti-cancer activity of NCO-700, TOP-008, and analogs, TOP-201, 202, 203, 204, 205, 206, 207, and 007, was tested in cancer cell death assays of human cancer cell line HS-578T. In FIGS. 34 (1,000 cells/well) and 35 (1,500 cells/well), a bar graph indicates the activity of a particular analog as measured by the % LDH released (DMSO, dimethyl sulfoxide=control), with higher values of LDH released indicating greater anti-neoplastic activity. All analogs were tested at a concentration of 25 μM.
# breast cancer cell lines = assay: Cancer cell death assay (LDH release), breast lines; assay type: cell-based, human; details: compound alone, 24 hours
# Protocol: as §2, §3, §4, §5, §6
# HS-578T (breast) [5] = assay: Apoptosis detection assay (annexin V / propidium iodide, flow cytometry); assay type: cell-based, human; details: 50 μM and 25 μM (FIG. 36)
# Protocol: Anti-neoplastic activity of TOP-008 was tested using a commercially available kit, Apoptosis Detection Kit, from R & D SYSTEMS (Minnesota) in which annexin V, a member of the calcum and phospholipid binding proteins, is used to detect apoptosis, following the protocol recommended by the manufacturer. TOP-008 was tested at a concentration of 50 μM, using Human breast cancer cell line HS-578T. Cells were washed in cold PBS twice and resuspended in a small volume of 1× binding buffer. Fluorescein-labeled annexin V and propidium iodide were added to the cells. The cells expressing phosphatidylserine on the outer leaflet of cell membranes bind annexin V and cells with a compromised cell membrane allow propidium iodide to bind to the cellular DNA. The resulting cells when immediately analyzed by flow cytometry can present three potential populations of cells: live cells which will not stain with either fluorochrome, necrotic cells which will stain with both fluorochrome, and cells undergoing apoptosis which will stain only with the annexin V-FITC reagent. Analysis was performed on cytometers equipped with a single laser emitting excitation light at 488 nm. The annexin V-FITC-generated signal was detected in the FITC signal detector (FL1). The results are shown in FIG. 36 in which the […]. […]
# cancer cell lines = assay: Cancer cell survival assay, a number of cancer cell lines; assay type: cell-based, human; details: FIGS. 26-31, alone
# Protocol: as §1
# (§7) FIGS. 26-31 show the effect of increasing the dose of TOP-008 against a number of cancer cell lines. […] For example, if the activity of NCO-700 and TOP-008 are compared against the human colon cancer cell line WIDR (FIG. 16 in Experiment 1 versus FIG. 31) it is seen that the effective dose of TOP-008 is much lower in this particular assay.
# [6] = system: pancreatic cancer cell lines ASPC-1 and HS-766T; assay: Cancer cell death assay (LDH release), pancreatic lines; assay type: cell-based, human; details: 25 μM, 24 hours
# Protocol: as §3
# As described in Experiment 1, the cancer cell death assays were performed to measure anti-neoplastic activity of the compounds, NCO-700, TOP-001, TOP-003, TOP-005, TOP-006, TOP-008, TOP-009, TOP-010, TOP-012, TOP-013, TOP-015, and TOP-017.
# The following cell lines were obtained from the American Type Tissue Culture Laboratory and cultured according to their specifications: Human pancreatic cancer cell lines ASPC-1 and HS-766T.
# The results of the experiments are shown in FIG. 32, where a bar graph indicates the activity of a particular analog as measured by the % LDH release stimulated by each analog for 24 hours, with higher values of LDH released indicating greater anti-neoplastic activity (apoptosis). All analogs were tested at a concentration of 25 μM.
# [7] = system: PC-3 (prostate tumor cell line); assay: Apoptosis induced DNA fragmentation (agarose gel); assay type: cell-based, human; details: PC-3, 25 μM, 48 hours
# Protocol: PC-3, a prostate tumor cell line, was treated with 25 μM TOP-008, 50 μM NCO-700, or water for 48 hours. The DNA from each sample was purified by phenol extraction, and the fragmentation was resolved on an agarose gel.
# WIDR (colon) = assay: Cancer cell survival assay, WIDR; assay type: cell-based, human; details: FIG. 16 versus FIG. 31
# Protocol: as §1
# The cancer cell survival assay is an important additional in vitro assay to assess the anti-neoplastic activity of compounds as the cells are given a prolonged exposure (seven days) to the drug. FIGS. 9-16 show the effect of increasing the dose of NCO-700 on the survival of a number of cancer cell lines. […] In the figures, the vertical axis is the object area, which is the number of surviving cancer cells calculated by a computer.
# as §7
# colon cancer cell lines = assay: Cancer cell death assay (LDH release), colon lines; assay type: cell-based, human; details: compound alone, 24 hours
# Protocol: as §2, §3, §4, §5, §6
# [8] = in vivo; cited from earlier work
compound,measurement,setting,value
"CCCC[C@@H](C=O)NC(=O)[C@H](CC(C)C)NC(=O)[C@H](CC(C)C)NC(C)=O [Calpain Inhibitor 1, N-acetyl-leu-leu-norleucinal] (Ac-Leu-Leu-[Nle]-aldehyde)",effectiveness in cancer cells having multidrug resistance / induction of cell death,[1],slightly effective
same,toxicity to the cells,cells,toxic to the cells
same,toxicity to the cells,cells; listed as Calpain inhibitor I,its toxicity may be an obstacle
CCOC(=O)[C@H]1O[C@@H]1C(=O)N[C@@H](CC(C)C)C(=O)NCCC(C)C [E-64-d],cell cycle arrest,"[2]; A431 cells, chemically defined medium",arrested at mitotic metaphase
same,effect on growth of cancer cells,[2]; Shoji-Kasai et al.,slows the growth of cancer cells
CC(C)C[C@H](NC(=O)[C@H]1O[C@@H]1C(=O)O)C(=O)NCCCCN=C(N)N [E-64],effectiveness in cancer cells having multidrug resistance / induction of cell death,[1],not to be particularly effective in cancer cells having multidrug resistance
"CCOC(=O)[C@@H]1O[C@H]1C(=O)N[C@@H](CC(C)C)C(=O)N1CCN(C/C=C/c2ccccc2)CC1 [TOP-008, Bis[ethyl (2R,3R)-3-[(S)-3-methyl-1-[4-(3-phenyl-2-propenyl)piperazin-1-ylcarbonyl]butylcarbamoyl]oxirane-2-carboxylate] Sulfate]",anti-neoplastic activity (LDH release),[3],excellent activity
same,anti-neoplastic activity (% LDH released),"HS-578T (breast) [4]; HS-578T, 25 μM, 1,000 and 1,500 cells/well (FIGS. 34, 35)",very good anti-neoplastic activity
same,kill rate of breast cancer cells relative to NCO-700,"HS-578T (breast) [4]; HS-578T, alone",approximately three-fold
same,anti-neoplastic activity (LDH release) / potency compared to NCO-700,"HS-578T (breast) [4]; HS-578T, alone",higher potency; also recorded: highest potency
same,anti-neoplastic potency relative to NCO-700,HS-578T (breast) [4]; conclusion of Experiment 1,three-fold
same,anti-neoplastic activity (LDH release),breast cancer cell lines,excellent activity
same,induction of apoptosis,HS-578T (breast) [5],induced apoptosis in human breast cancer cells
same,anti-neoplastic activity (cell survival),cancer cell lines,highly active anti-neoplastic agent (apoptosis agent) and in some cases is much more active than NCO-700
same,anti-neoplastic activity (% LDH release) compared with NCO-700,[6],significantly greater activity than NCO-700 itself
same,DNA fragmentation,[7],significant DNA fragmentation
same,effective dose compared with NCO-700,WIDR (colon),much lower
same,anti-neoplastic activity (LDH release),colon cancer cell lines,excellent activity
"CC(C)C[C@H](NC(=O)[C@@H]1O[C@H]1C(=O)OCc1ccccc1)C(=O)N1CCN(C/C=C/c2ccccc2)CC1 [TOP-009, Bis[benzyl (2R,3R)-3-[(S)-3-methyl-1-[4-(3-phenyl-2-propenyl)piperazin-1-ylcarbonyl]butylcarbamoyl]oxirane-2-carboxylate] Sulfate]",anti-neoplastic activity (LDH release) / potency compared to NCO-700,"HS-578T (breast) [4]; HS-578T, alone",higher potency
same,anti-neoplastic activity (% LDH release) compared with NCO-700,[6],significantly greater activity than NCO-700 itself
"CC(C)C[C@H](NC(=O)[C@@H]1O[C@H]1C(=O)Oc1ccccc1)C(=O)N1CCN(C/C=C/c2ccccc2)CC1 [TOP-013, Bis[phenyl (2R,3R)-3-[(S)-3-methyl-1-[4-(3-phenyl-2-propenyl)piperazin-1-ylcarbonyl]butylcarbamoyl]oxirane-2-carboxylate] Sulfate]",anti-neoplastic activity (LDH release) / potency compared to NCO-700,"HS-578T (breast) [4]; HS-578T, alone",higher potency
COc1cccc2c1C(=O)c1c(O)c3c(c(O)c1C2=O)C[C@@](O)(C(=O)CO)C[C@@H]3O[C@H]1C[C@H](N)[C@H](O)[C@H](C)O1 [adriamycin],side effects,[8],"inevitable side effects such as hair loss, weight loss, and liver and kidney damage"
